Measurements reported in patent publication US11377473B2, “Albumin-binding prodrugs of auristatin E derivatives” (priority 2017, dated 2022).

Tests used:
[1] = system: human tumor xenograft models; assay: Antitumor activity in human tumor xenograft mice models (overall statement); type: in vivo, nude mice; details: starting tumor volumes approximately 130-170 mm^3 and up to approximately 380 mm^3
Dose finding studies = assay: Dose finding studies
Description: Female immunodeficient NMRI nude mice, from Janvier, France, received 5×10^6-10^7 cultured cancer cell in buffer/Matrigel (1:1) inoculated subcutaneously, until tumors were palpable and had reached the desired volume (for xenograft studies).
Animals were kept in cages (Macrolon Type-II wire-mesh) with temperature maintained at 22±1° C., relative humidity of 50 f 10% and an air change rate of 60-fold per hour. Mice were kept under a 12-hour light/12-hour dark, artificial light cycle. The animals were fed with autoclaved Ssniff NM (Soest, Germany), and had access to sterile filtered and acidified (pH 4.0) tap water which was changed twice weekly. Feed and water were provided ad libitum. […] The health of the animals was examined at the start of the experiment and twice per day during the experiment. Identification used: ear mark and cage labels. Starting on day 0, animals were weighed two or three times per week and mean body weight per group was related to the initial value in percent to calculate the body weight change (BWC). Tumor diameters were determined by a two-dimensional measurement with a caliper on the day of randomization (Day 0) and then twice or three times per week. Tumor volumes were calculated according to the following equation:
Tumor Vol [mm^3]=1 [mm]×w^2 [mm^2]×0.5, where “1” is the length and “w” is width of the tumor. The relative volume of an individual tumor on day X (RTVx) was calculated by dividing the absolute individual tumor volume [mm^3] of the respective tumor on day X (Tx) by the absolute individual tumor volume of the same tumor on the day of randomization multiplied by 100%. Schedules were applied to the extent that animal welfare policies allow. Termination of individual mice was carried out at tumor volume >1500 mm^3 (unilateral) or when ulceration was observed. Statistical comparison was performed with the Mann-Whitney U-test. Dose Finding Studies of Auristatin E and the Albumin-Binding Auristatin E Derivatives AE-Keto-Sulf07 and AE-Ester-Sulf07.
Stock solutions were prepared as follows: • 1) 3 mice per group, 26 g average weight on day of randomization: 0.3, 0.6 or 1.2 mg/kg dose auristatin E TFA salt (AE equiv.) dosed once weekly for 4 weeks on day 0, 6, 13, 20≡0.35-1.41 mg/kg≡7.1-28.3 μg/20 g mouse. Sample preparation: 8.5 mg weighed in a 50 mL vial dissolved in 30.0 mL 25/75 tert-butanol/10 mM sodium phosphate buffer, 5% sucrose—pH 7.0; 0.2-0.8 mL were aliquoted in 2 mL vials depending on the final desired final dose. The vials were frozen for 1 h at −40° C. and lyophilized at −20° C. over ˜36 h and then stoppered. On day of injection, the lyophilized samples were reconstituted with 0.8 mL of 10 mM sodium phosphate buffer, 20% propylene glycol—pH 7.0. • 2) 3 mice per group, 26 g average weight on day of randomization: 1.2 and 2.4 mg/kg AE-Keto-Sulf07 (AE equiv.) dosed twice weekly for 4 weeks ≡1.94-3.87 mg/kg≡38.7 and 77.4 μg/20 g mouse. Sample preparation: 11.0 mg weighed in a 30 mL vial dissolved in 14.2 mL 50/50 tert-butanol/10 mM sodium phosphate buffer, 5% sucrose—pH 7.0; 0.4-0.8 mL were aliquoted in 2 mL vials depending on the final desired final dose. The vials were frozen for 1 h at −40° C. and lyophilized at −20° C. over ˜36 h and then stoppered. On the day of injection, the lyophilized samples were reconstituted with 0.8 mL of 10 mM sodium phosphate buffer, 20% propylene glycol—pH 7.0. • 3) 3 mice per group, 26 g average weight on day of randomization: 1.2, 1.6 or 2.0 mg/kg AE-Ester-Sulf07 (AE equiv.) dosed twice weekly for 4 weeks on day≡2.18-3.64 mg/kg≡43.7-72.8 μg/20 g mouse. Sample preparation: 19.2 mg weighed in a 30 mL vial dissolved in 26.3 mL 50/50 tert-butanol/10 mM sodium phosphate buffer, 5% sucrose—pH 7.0; 0.48-0.8 mL were aliquoted in 2 mL vials depending on the final desired final dose. The vials were frozen for 1 h at −40° C. and lyophilized at −20° C. over ˜36 h and then stoppered.

[2] = system: human ovarian carcinoma model A2780; assay: Human ovarian carcinoma model A2780, large tumors; type: in vivo, NMRI nude mice
Description: (§1) Feed and water were provided ad libitum. […] Identification used: ear mark and cage labels. […] Tumor volumes were calculated according to the following equation: […]
(§2) The evaluation of auristatin E and the albumin-binding auristatin E derivative AE-Keto-Sulf07 in a human ovarian carcinoma model A2780 was carried out as described in the general procedure for cell-line-derived xenograft models.
The evaluation of auristatin E and the albumin-binding auristatin E derivative AE-Ester-Sulf07 in a human ovarian carcinoma model A2780 was carried out as described in the general procedure for cell-line-derived xenograft models.

[3] = system: human ovarian carcinoma model A2780; assay: Human ovarian carcinoma model A2780, small tumors; type: in vivo, NMRI nude mice
Description: as §1, §2
The evaluation of the albumin-binding auristatin E derivative AE-Ester-Sulf07 in a human ovarian carcinoma model A2780 was carried out as described in the general procedure for cell-line-derived xenograft models.
AE-Ester-Sulf07 was also tested in the same ovarian carcinoma model A2780 with smaller tumors and a different dosing scheme to diminish the side effects of the drug on the skin of the mice. AE-Ester-Sulf07 was dosed at 3.8 mg/kg four times once weekly, showing again a statistically significant improved antitumor effect compared to the control (p<0.01 from day 7 to 14). Mice treated with AE-Ester-Sulf07 in the new dosing regimen achieved partial remission from day 12 until day 35 and complete remission from day 39 until the end of the study on day 70.

[4] = 1.9 mg/kg eight times twice weekly
[5] = 0.3 mg/kg eight times twice weekly

2-(2-(1-(4-(((1S,2R)-2-((2R,3R)-3-((S)-1-((3R,4R,5S)-4-((S)-2-((R)-2-(dimethylamino)-3-methylbutanamido)-N,3-dimethylbutanamido)-3-methoxy-5-methylheptanoyl)pyrrolidin-2-yl)-3-methoxy-2-methylpropanamido)-1-phenylpropoxy)carbonyl)phenyl)ethylidene)hydrazine-1-carbonyl)-5-(6-(2,5-dioxo-2,5-dihydro-1H-pyrrol-1-yl)hexanamido)benzenesulfonic acid [AE-Ester-Sulf07]
antitumor activity in all human tumor xenografts evaluated [1]: partial and complete remissions
side effect compared with the other groups (Dose finding studies; 4.0 mg/kg once weekly): lowest side effect
body weight change (Dose finding studies; 2.0, 2.2, 2.4 mg/kg twice per week and 4.0, 4.4, 4.8 mg/kg once per week over four weeks): No body weight change
appearance of skin irritation (Dose finding studies; all groups: 2.0, 2.2, 2.4 mg/kg twice per week and 4.0, 4.4, 4.8 mg/kg once per week): 9 to 14 days
tolerability (Dose finding studies; up to 2.0 mg/kg dosed twice weekly for four weeks): no evident sign of toxicity
animals lost [2, 4]: four animals had to be removed from the study due to tumor necrosis
body weight [2, 4]: no sign of body weight loss compared to the control
tumor response ([2]; 1.9 mg/kg eight times twice weekly, day 19 until day 51): partial remission (partial remission >10-50%)
tumor response ([2]; 1.9 mg/kg eight times twice weekly, day 54 until end of study on day 103): complete remission (complete remission <10%)
p, antitumor efficacy versus auristatin E ([2]; 1.9 mg/kg versus auristatin E 0.3 mg/kg, eight times twice weekly, day 37 to day 40): < 0.001
animals lost ([3]; 3.8 mg/kg four times once weekly): Three AE-Ester-Sulf07 treated mice showed body weight loss and had to be sacrificed on day 59
p, antitumor effect compared to the control ([3]; 3.8 mg/kg four times once weekly, day 7 to 14): < 0.01
tumor response ([3]; 3.8 mg/kg four times once weekly, day 12 until day 35): partial remission (partial remission >10-50%)
tumor response ([3]; 3.8 mg/kg four times once weekly, day 39 until end of study on day 70): complete remission (complete remission <10%)

CC[C@H](C)[C@@H]([C@@H](CC(=O)N1CCC[C@H]1[C@H](OC)[C@@H](C)C(=O)N[C@H](C)[C@@H](O)c1ccccc1)OC)N(C)C(=O)[C@@H](NC(=O)[C@H](C(C)C)N(C)C)C(C)C [auristatin E]
antitumor activity in all human tumor xenografts evaluated [1]: principally inactive
tolerability (Dose finding studies; 0.3 mg/kg once weekly for 4 weeks): well tolerated
tolerability (Dose finding studies; 0.6 mg/kg once weekly, no animal survived after the second injection): high toxicity
tolerability (Dose finding studies; 1.2 mg/kg once weekly, no animal survived after the first injection): high toxicity
maximum tolerated dose (MTD) (Dose finding studies; injected biweekly for four weeks (total of eight injections)): 0.3 mg/kg
antitumor effect [2, 5]: did not achieve any antitumor effect
antitumor effect [3, 5]: did not achieve any antitumor effect

CC[C@H](C)[C@@H]([C@@H](CC(=O)N1CCC[C@H]1[C@H](OC)[C@@H](C)C(=O)N[C@H](C)C(=NNC(=O)c1ccc(NC(=O)CCCCCN2C(=O)C=CC2=O)cc1S(=O)(=O)O)c1ccccc1)OC)N(C)C(=O)[C@@H](NC(=O)[C@H](C(C)C)N(C)C)C(C)C [AE-Keto-Sulf07, 2-(2-((R)-2-((2R,3R)-3-((S)-1-((3R,4S,5S)-4-((S)-2-((S)-2-(dimethylamino)-3-methylbutanamido)-N,3-dimethylbutanamido)-3-methoxy-5-methylheptanoyl)pyrrolidin-2-yl)-3-methoxy-2-methylpropanamido)-1-phenylpropylidene)hydrazine-1-carbonyl)-5-(6-(2,5-dioxo-2,5-dihydro-1H-pyrrol-1-yl)hexanamido)benzenesulfonic acid]
antitumor activity in all human tumor xenografts evaluated [1]: partial and complete remissions
tolerability (Dose finding studies; 6.5 mg/kg biweekly in later xenograft studies, treatment stopped after five injections): above the MTD
tolerability (Dose finding studies; all doses tested (1.2 and 2.4 mg/kg), injected eight times on a biweekly schedule): well tolerated
safe dose (Dose finding studies; biweekly schedule): 4.5 mg/kg
body weight ([2]; 4.5 mg/kg eight times twice weekly): only a slightly reduced body weight growth compared to the control
tumor response ([2]; 4.5 mg/kg eight times twice weekly, day 26 until end of study on day 103): complete remission (complete remission <10%)
p, antitumor effect versus auristatin E ([2]; 4.5 mg/kg versus auristatin E 0.3 mg/kg, eight times twice weekly, day 22 to day 40): < 0.001
tumor response ([3]; 3.0 and 5.0 mg/kg eight times twice weekly, day 9 until end of study on day 60): partial remission (partial remission >10-50%)
p, antitumor efficacy versus auristatin E ([3]; 3.0 and 5.0 mg/kg versus auristatin E 0.3 mg/kg, eight times twice weekly, day 7 to day 29): < 0.01
transient body weight loss ([3]; 3.0 and 5.0 mg/kg, after the first treatment): ~2%
tumor response (transient) ([3]; higher dose 5.0 mg/kg, day 25 to day 51): complete remission (complete remission <10%)
animals lost ([3]; higher dose group 5.0 mg/kg): One mouse from the higher dose group was found dead on day 35
tumor response (transient) ([3]; lower dose 3.0 mg/kg, day 23 to day 35): complete remission (complete remission <10%)
animals lost ([3]; lower dose group 3.0 mg/kg): one from the lower dose group had to be sacrificed on day 42 for general bad conditions
